Here are results for 10 molecules from patent US20220265641A1, “SEROTONERGIC AGENT AND 5-HT1A-RECEPTOR ANTAGONIST” (ATLAS PHARMACEUTICALS BV, priority 2019, published 2022).

The test system of data set [1] is time to first ejaculation of male rats. Description: Time until first ejaculation in male rats, 5-HT1A-receptor antagonist in conjunction with serotonergic agent (Example 3). The settings on record: antagonist in conjunction with Citalopram, Fluoxetine, Ifoxetine, Paroxetine or Zimelidine shortly before sexual activity, relative to the rat's own average without treatment. It is filed as in vivo. How it is done: In a study with male rats, 10 different 5-HT1A-receptor antagonists are administered in conjunction with five different serotonergic agents shortly before sexual activity.

For data set [2], the system named is male rat sexual behavior. Put plainly: Male rat sexual behavior model (sexually trained males, 30-min access to receptive females). The settings on record: for behavioral effects on sexual behavior, antagonist alone: separate experiments, not shown. The format is in vivo. An excerpt: A model of sexual behavior in male rats was developed that is predictive of SSRI-effects on human male sexual behavior (Bijlsma et al. 2014; Olivier et al. 2006; 2017). In this male rat sexual behavior model, SSRIs inhibit sexual behavior, but only upon chronic administration thereby mimicking and modeling the SSRI effects in human males.
Male rats were sexually trained till they obtained a stable sexual performance (on average 2 ejaculations per 30-min, the standard testing duration). Animals were injected intraperitoneally 30-min before testing after which males had 30 min access to the females that were behaviorally sexually receptive. A trained researcher scored the sexual behavior of the males according to published and accepted methods (Chan et al. 2010).

Data set [3] concerns the target T1, 5-HT1A-receptor (Homo sapiens, UniProt P08908).
T1 construct: host or cells: brain of healthy human volunteers (in vivo PET)
T1 sequence (P08908 1-422): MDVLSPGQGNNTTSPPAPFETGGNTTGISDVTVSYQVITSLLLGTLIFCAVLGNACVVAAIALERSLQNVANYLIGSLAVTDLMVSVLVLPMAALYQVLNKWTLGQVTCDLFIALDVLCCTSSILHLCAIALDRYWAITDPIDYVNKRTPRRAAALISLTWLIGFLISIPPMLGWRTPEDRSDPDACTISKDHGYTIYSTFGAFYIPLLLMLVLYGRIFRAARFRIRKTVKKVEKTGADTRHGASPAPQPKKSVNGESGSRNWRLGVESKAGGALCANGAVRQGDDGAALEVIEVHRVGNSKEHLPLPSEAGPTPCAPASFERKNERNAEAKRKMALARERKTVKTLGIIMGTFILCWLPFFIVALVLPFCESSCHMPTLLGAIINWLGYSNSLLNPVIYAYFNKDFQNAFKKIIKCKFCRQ
The settings on record: healthy human volunteers, cited from earlier work.

The test system of data set [4] is 5-HT1A receptor. The settings on record: cited from earlier work.

Turning to `C=CCc1ccccc1OCC(O)CNC(C)C` (centres unmarked) [Alprenolol], in data set [1], the “Potential average increase in time to first ejaculation (%)” value (“Potential average increase in time … (%)” for short) came out at 75%.
As for `O=C1c2ccccc2S(=O)(=O)N1CCCCN1CCN(c2cc(Cl)cc3c2OCCO3)CC1` [DU125530, 2-[4-[4-(7-chloro-2,3-dihydro-1,4-benzodi-oxin-5-yl)-1-piperazinyl]butyl]-1,2-benzisothiazol-3(2H)-one-1,1-dioxide], in data set [2] (DU125530 alone at doses up to 20 mg/kg), the “behavioral effects on sexual behavior, antagonist alone” value is “no behavioral effects on sexual behavior”. For the same molecule, the “effect on male rat sexual behavior” value in data set [2] (acute DU125530 20 mg/kg in combination with acute paroxetine 5 mg/kg, intraperitoneally 30 min before testing) is reported as “strongly inhibited male rat sexual behavior”. In addition, the “effects when administered alone” value in data set [2] (administered alone) was “no effects”. For the same molecule, the “pharmacological activity when combined with paroxetine” value in data set [2] (combined with paroxetine) is reported as “pharmacologically active”. For the same molecule, in data set [2] (rat, in vivo), the safety result is recorded as “safe”. Further, in data set [1], the “Potential average increase in time … (%)” value is listed as 254%. Also, the 5-HT1A-receptor occupancy in data set [3] (10 to 40-mg daily dose range, 2 h post the last dose, dose-dependent) was 0-72%. In data set [3] (10 to 40-mg daily dose range), the side effects entry is given as “minor side effects” and the tolerability entry is “well tolerated”. In addition, in data set [3], the “correlation of occupancy with plasma levels” value is reported as “correlated highly”. The “5-HT1A receptor antagonistic activities in vitro and in vivo” value in data set [4] (Mos et al. 1997) is “selective 5-HT1A receptor antagonistic activities”. Also, the “biological activity given on itself” value in data set [4] (given on itself, Joordens et al. 1997) is reported as “without biological activity”. Also, in data set [4] (several animal models), the “5-HT1A receptor antagonistic activity in several animal models” value was “nice and reliable 5-HT1A receptor antagonistic activity”.
Take `c1ccc(C(c2ccccc2)N2CCN(CCCC3(c4ccccc4)OCCO3)CC2)cc1` [Dotarizine]: in data set [1], the “Potential average increase in time … (%)” value was determined as 67%.
Regarding `CSc1ccc2c(c1)C(N1CCN(C)CC1)Cc1ccccc1S2` (centres unmarked) [Methiothepin], the “Potential average increase in time … (%)” value in data set [1] is listed as 97%.
On the same count and under the same terms, the value for `OC(CNCC(O)C1CCc2cc(F)ccc2O1)C1CCc2cc(F)ccc2O1` (centres unmarked) [Nebiovolol] was 95%; that for `CC(C)NCC(O)COc1cccc2[nH]ccc12` (centres unmarked) [Pindolol] was 46%.
On the same count and under the same terms, the result for `CC(C)NCC(O)COc1cccc2ccccc12` (centres unmarked) [Propranolol] reads 87%; that for `Cc1nc2n(c(=O)c1CCN1CCC(c3noc4cc(F)ccc34)CC1)CCCC2` [Risperidone], 102%.
Still for that read-out and setting: the value for `O=C(CCCN1CCC2(CC1)C(=O)NCN2c1ccccc1)c1ccc(F)cc1` [Spiperone] was 80%.
With `COc1ccccc1N1CCN(CCN(C(=O)C2CCCCC2)c2ccccn2)CC1` [WAY100,635, reference compound], the “effect on male rat sexual behavior” value in data set [2] (WAY100,635 (0.3 mg/kg) in combination with paroxetine (5 mg/kg), own data, compared with DU125530 + paroxetine) is “comparable inhibition”. For the same molecule, the “behavioral effects on sexual behavior, antagonist alone” value in data set [2] (WAY100,635 alone at doses up to 1 mg/kg, IP) was “no behavioral effects on sexual behavior”.
